Test results published in article PMC10363774 (RSC Advances, 2023).

Assays:
[1] = tested on: MCF-7 cells (breast cancer); experiment: MTT anti-proliferative assay, MCF-7; assay type: cell-based; conditions: Homo sapiens, MCF7, 48 h, read-out: In vitro cytotoxicity IC50 MCF-7
[2] = tested on: HCT-116 cells (colon cancer); experiment: MTT anti-proliferative assay, HCT-116; assay type: cell-based; conditions: Homo sapiens, HCT-116, 48 h, read-out: In vitro cytotoxicity IC50 HCT 116
IL-6 = experiment: In vitro immunomodulatory assay, IL-6; assay type: cell-based, human; conditions: HCT-116 cells, 24 h, at the IC50 concentration

| Structure (SMILES) | IC50 [1] | IC50 [2] | Pro-inflammatory factors inhibition IL-6 (IL-6) |
| --- | --- | --- | --- |
| CNC(=O)c1cc(Oc2ccc(NC(=O)Nc3ccc(Cl)c(C(F)(F)F)c3)cc2)ccn1 [Sorafenib] | 11.83 ± 0.07 µM | 8.96 ± 0.05 µM | – |
| C[C@@H]1C[C@H]2[C@@H]3CCC4=CC(=O)C=C[C@]4(C)[C@@]3(F)[C@@H](O)C[C@]2(C)[C@@]1(O)C(=O)CO [Dexamethasone] | – | – | 93.15 pg per mL % |
